The source of these data is patent US8592629B2, “Sulfonamide derivatives as Nav 1.7 inhibitors” (Pfizer Limited, priority 2010, dated 2013).

The assay deals with T1, Nav1.7 (or SCN9A) channel (Homo sapiens, UniProt Q15858).
T1 construct: expressed in transfected cells
Kind of assay: Nav1.7 (hSCN9A) block in HEK cells, PatchXpress 7000 automated electrophysiology, estimated IC50 (EIC50). The class given is cell-based. The note with it: PatchXpress assay; HEK cells stably transfected with hSCN9A, voltage-clamped at V1/2 of inactivation. The method in brief:
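Stable hSCN9A HEK cells voltage-clamped at empirically determined inactivation V1/2 (8 s prepulse), current activated by 20 msec step to 0 mV; % inhibition from current before vs after compound. EIC50 derived from single-point data as concentration × (100−%inhibition)/%inhibition, excluding <20% and >80% inhibition; PatchXpress unless stated.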

T1 sequence (Q15858 whole entry): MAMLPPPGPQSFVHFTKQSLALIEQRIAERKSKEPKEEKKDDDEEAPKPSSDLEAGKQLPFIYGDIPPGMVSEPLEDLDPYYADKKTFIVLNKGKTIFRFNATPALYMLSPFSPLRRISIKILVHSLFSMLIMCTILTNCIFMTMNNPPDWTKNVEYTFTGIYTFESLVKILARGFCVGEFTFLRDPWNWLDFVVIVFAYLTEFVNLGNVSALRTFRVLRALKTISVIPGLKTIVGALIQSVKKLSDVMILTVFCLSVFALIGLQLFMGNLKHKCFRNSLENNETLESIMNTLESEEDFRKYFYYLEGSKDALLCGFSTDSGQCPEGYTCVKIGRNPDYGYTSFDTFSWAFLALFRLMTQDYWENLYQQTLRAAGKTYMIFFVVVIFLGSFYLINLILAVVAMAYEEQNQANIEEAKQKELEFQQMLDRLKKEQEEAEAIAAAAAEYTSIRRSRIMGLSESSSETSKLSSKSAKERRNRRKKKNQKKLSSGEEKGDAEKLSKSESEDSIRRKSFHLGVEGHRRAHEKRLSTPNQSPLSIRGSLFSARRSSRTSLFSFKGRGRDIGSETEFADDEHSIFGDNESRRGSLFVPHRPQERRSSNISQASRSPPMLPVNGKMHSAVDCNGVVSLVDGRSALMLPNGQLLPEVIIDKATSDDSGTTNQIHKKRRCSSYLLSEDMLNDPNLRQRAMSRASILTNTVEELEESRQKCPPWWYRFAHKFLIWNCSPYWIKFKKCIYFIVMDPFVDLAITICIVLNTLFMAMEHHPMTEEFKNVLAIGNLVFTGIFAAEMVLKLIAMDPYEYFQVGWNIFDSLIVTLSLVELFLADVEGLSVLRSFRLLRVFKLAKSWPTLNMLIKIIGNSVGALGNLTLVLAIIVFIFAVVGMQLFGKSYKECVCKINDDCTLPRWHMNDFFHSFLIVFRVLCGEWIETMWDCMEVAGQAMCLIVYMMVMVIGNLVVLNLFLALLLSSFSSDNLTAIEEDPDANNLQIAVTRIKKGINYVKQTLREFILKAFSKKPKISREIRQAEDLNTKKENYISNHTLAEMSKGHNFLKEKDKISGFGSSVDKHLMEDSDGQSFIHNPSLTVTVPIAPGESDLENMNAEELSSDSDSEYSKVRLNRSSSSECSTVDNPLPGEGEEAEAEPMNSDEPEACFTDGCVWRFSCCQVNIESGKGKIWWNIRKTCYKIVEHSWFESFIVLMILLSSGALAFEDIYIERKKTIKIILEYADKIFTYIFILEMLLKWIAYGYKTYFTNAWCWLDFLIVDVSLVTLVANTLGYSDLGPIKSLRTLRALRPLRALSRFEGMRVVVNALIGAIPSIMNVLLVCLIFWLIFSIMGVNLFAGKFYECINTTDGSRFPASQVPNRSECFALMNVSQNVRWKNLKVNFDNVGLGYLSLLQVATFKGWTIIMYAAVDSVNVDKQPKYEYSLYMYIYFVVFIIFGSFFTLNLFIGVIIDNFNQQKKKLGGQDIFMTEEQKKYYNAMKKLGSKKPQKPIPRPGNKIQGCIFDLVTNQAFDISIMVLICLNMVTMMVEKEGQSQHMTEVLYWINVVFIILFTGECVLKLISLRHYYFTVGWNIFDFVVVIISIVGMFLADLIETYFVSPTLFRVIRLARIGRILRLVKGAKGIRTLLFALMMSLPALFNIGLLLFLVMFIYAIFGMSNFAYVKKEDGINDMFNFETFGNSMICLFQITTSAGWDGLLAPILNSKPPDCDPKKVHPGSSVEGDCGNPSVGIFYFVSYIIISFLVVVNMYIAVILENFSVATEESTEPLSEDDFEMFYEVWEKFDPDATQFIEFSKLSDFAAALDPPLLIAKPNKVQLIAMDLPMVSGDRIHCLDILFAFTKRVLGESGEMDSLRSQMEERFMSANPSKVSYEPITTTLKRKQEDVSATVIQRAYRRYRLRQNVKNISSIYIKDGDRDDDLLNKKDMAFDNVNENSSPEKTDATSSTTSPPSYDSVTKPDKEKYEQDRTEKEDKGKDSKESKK

As to `C[C@@H]1CCCN1c1ncc(Oc2cc(F)c(C(=O)NS(C)(=O)=O)cc2F)cc1Cl` [Example 132, 4-({5-chloro-6-[(2R)-2-methylpyrrolidin-1-yl]pyridin-3-yl}oxy)-2,5-difluoro-N-(methylsulfonyl)benzamide], the IC50 was 160 nM.

With `CN(c1ncc(Oc2cc(F)c(C(=O)NS(C)(=O)=O)cc2F)cc1Cl)C1CCC1` [Example 133, 4-({5-chloro-6-[cyclobutyl(methyl)amino]pyridin-3-yl}oxy)-2,5-difluoro-N-(methylsulfonyl)benzamide], the half-maximal inhibitory concentration (IC50) is 170 nM.

Take `CS(=O)(=O)NC(=O)c1cc(F)c(Oc2cnc(N3CC(F)C3)c(Cl)c2)cc1F` [Example 134, 4-{[5-chloro-6-(3-fluoroazetidin-1-yl)pyridin-3-yl]oxy}-2,5-difluoro-N-(methylsulfonyl)benzamide]: the IC50 was 580 nM.

Regarding `CC(C)CN(C)c1ncc(Oc2cc(F)c(C(=O)NS(C)(=O)=O)cc2F)cc1Cl` [Example 135, 4-({5-chloro-6-[isobutyl(methyl)amino]pyridin-3-yl}oxy)-2,5-difluoro-N-(methylsulfonyl)benzamide], the half-maximal inhibitory concentration (IC50) is 140 nM.

For `COC[C@H](C)Nc1ncc(Oc2cc(F)c(C(=O)NS(C)(=O)=O)cc2F)cc1Cl` [Example 136, 4-[(5-chloro-6-{[(1S)-2-methoxy-1-methylethyl]amino}pyridin-3-yl)oxy]-2,5-difluoro-N-(methylsulfonyl)benzamide], the IC50 is 890 nM.

Take `CNc1ncc(Oc2cc(F)c(C(=O)NS(C)(=O)=O)cc2F)cc1Cl` [Example 137, 4-{[5-chloro-6-(methylamino)pyridin-3-yl]oxy}-2,5-difluoro-N-(methylsulfonyl)benzamide]: the half-maximal inhibitory concentration (IC50) was 3200 nM.

Turning to `CS(=O)(=O)NC(=O)c1cc(F)c(Oc2cnc(NC3CCCC3)c(Cl)c2)cc1F` [Example 138, 4-{[5-chloro-6-(cyclopentylamino)pyridin-3-yl]oxy}-2,5-difluoro-N-(methylsulfonyl)benzamide], the half-inhibitory concentration (IC50) is 85 nM.

Take `CN(c1ncc(Oc2cc(F)c(C(=O)NS(C)(=O)=O)cc2F)cc1Cl)C1CCOC1` (centres unmarked) [Example 139, 4-({5-chloro-6-[methyl(tetrahydrofuran-3-yl)amino]pyridin-3-yl}oxy)-2,5-difluoro-N-(methylsulfonyl)benzamide]: the IC50 was 2600 nM.

With `CS(=O)(=O)NC(=O)c1cc(F)c(Oc2cnc(NC3CC3)c(Cl)c2)cc1F` [Example 140, 4-{[5-chloro-6-(cyclopropylamino)pyridin-3-yl]oxy}-2,5-difluoro-N-(methylsulfonyl)benzamide], the 50% inhibitory concentration (IC50) is 1600 nM.

As for `CN(CC1CC1)c1ncc(Oc2cc(F)c(C(=O)NS(C)(=O)=O)cc2F)cc1Cl` [Example 141, 4-({5-chloro-6-[(cyclopropylmethyl)(methyl)amino]pyridin-3-yl}oxy)-2,5-difluoro-N-(methylsulfonyl)benzamide], the half-inhibitory concentration (IC50) was 270 nM.

As to `CS(=O)(=O)NC(=O)c1cc(F)c(Oc2cnc(N3CCCCC3)c(Cl)c2)cc1F` [Example 142, 4-[(5-chloro-6-piperidin-1-ylpyridin-3-yl)oxy]-2,5-difluoro-N-(methylsulfonyl)benzamide], the IC50 is 170 nM.

Take `COCCNc1ncc(Oc2cc(F)c(C(=O)NS(C)(=O)=O)cc2F)cc1Cl` [Example 143, 4-({5-chloro-6-[(2-methoxyethyl)amino]pyridin-3-yl}oxy)-2,5-difluoro-N-(methylsulfonyl)benzamide]: the half-maximal inhibitory concentration (IC50) is greater than 1000 nM.

Regarding `CS(=O)(=O)NC(=O)c1cc(F)c(Oc2cnc(N[C@@H]3CCC[C@H]3F)c(Cl)c2)cc1F` [Example 144, 4-[(5-chloro-6-{[(1R,2R)-2-fluorocyclopentyl]amino}pyridin-3-yl)oxy]-2,5-difluoro-N-(methylsulfonyl)benzamide], the half-maximal inhibitory concentration (IC50) is 490 nM.

With `CS(=O)(=O)NC(=O)c1cc(F)c(Oc2cnc(NC3CCCOC3)c(Cl)c2)cc1F` (centres unmarked) [Example 145, 4-{[5-chloro-6-(tetrahydro-2H-pyran-3-ylamino)pyridin-3-yl]oxy}-2,5-difluoro-N-(methylsulfonyl)benzamide], the IC50 is 810 nM.
